Several values for one entry are separate records, joined by “and”; a condition that tells them apart may be missing. Equal entries are not always repeated. Where two headings read alike, the source gives them in different places.
Experiments:
[1] = Single-dose toxicity in dogs; assay type: in vivo
Protocol: A single-dose of TH302 was administered to rats and dogs over 30 min in order to achieve a rapid increase to relatively high drug levels. Rats were administered 50, 100, and 200 mg/kg, and dogs at 8, 16 and 32 mg/kg of TH302. […] These changes at the lowest toxicity level were fully reversible within 2 weeks.

[2] = Biodistribution by whole body autoradiography; assay type: in vivo, male Sprague Dawley rats; settings: rats, [^14C] TH302 50 mg/kg single i.v. bolus
Protocol: TH302 to rats. Five male Sprague Dawley rats were assigned to one dose group. Non-radiolabeled TH302 (0.06 g) was weighed into an appropriate formulation bottle, a solution of 153 μL of [^14C] TH302 was measured and transferred to the formulation bottle, followed by the addition of 6.85 mL of 50 PEG400 in saline. The resulting formulation was cold-sterilized by filtration through a 0.22 μm mesh size commercial filter. The dosing formulation was kept at ambient temperature and in the dark pending dose administration. Animals were administered radiolabelled TH302 by intravenous injection of the formulation at a dose of 50 mg/kg wherein a radioactivity of about 100 μCi was administered. Following administration of TH302, the animals were sacrificed at selected time-points and carcasses were flash-frozen and processed for sectioning. A series of sagittal and para-sagittal sections were obtained from each carcass and were exposed to highly sensitive film until adequate imprinting of radioactivity was obtained. The pictures obtained were analyzed semi-quantitatively using computerized densitometry.

[3] = Interspecies scaling (complex Dedrick analysis); settings: 70-kg human
Protocol: (§1) Pharmacokinetic studies were performed in male CD-1 (50 mg/kg i.p. or orally (p.o.)) or female nude mice (50 mg/kg i.v. or i.p.), male Sprague-Dawley rats (1, 5, 20 and 50 mg/kg i.v. and 100 mg/kg, p.o.), beagle dogs (20 mg/kg, i.v.) and cynomologus monkeys (20 mg/kg i.v.). Plasma TH302 concentrations were analyzed using a LC/MS method and the pharmacokinetic parameters computed using a noncompartmental method. Interspecies scaling was performed according to standard methods.
Parts A, B, and C, below tabulate the pharmacokinetics of TH302 when administered to rats, Dogs, and monkeys.

[4] = Pharmacokinetics after repeated administration (Q7D×3) to dogs; assay type: in vivo; settings: dog; for clearance / half-life / AUC / Cmax / Vd: TH302 in dogs; for half-life: read-out: Half-Life (converted); for Cmax: read-out: Cmax; for Vd: read-out: Vss
Description: These changes were reversible.

H460 NSCLC cancer cells = experiment: H460 pleural cavity metastatic tumor model; assay type: in vivo, mice; settings: TH302 alone Q3D×5, 100 mg/kg, i.v.
Protocol: Metastatic tumors were also grown in mice by injecting H460 NSCLC cancer cells into the pleural cavity. Metastases were observed among other organs in the lungs and ovary. […] Thus, TH302 is effective in treatment of metastatic tumors, when administered alone and in combination with another anti cancer agent.

[5] = Pharmacokinetics in cynomolgus monkeys (20 mg/kg i.v.); assay type: in vivo; settings: for Vd: read-out: Vss
Protocol: as §1
Individual and mean pharmacokinetic parameters of TH302 following intravenous administration at a dose of 20 mg/kg (N=3) is shown in Table 7.

[6] = Pharmacokinetics of TH302 in Beagle Dogs (Table 6); assay type: in vivo; settings: dog, plasma, intravenous; for half-life: read-out: T½ (converted); for Vd: read-out: Vss
[7] = in vivo, 16 mg/kg Q7D×3, Day 15
[8] = plasma, intravenous, 4 mg/kg Q7D×3, Day 15
[9] = plasma, intravenous, 8 mg/kg Q7D×3, Day 15
[10] = plasma, intravenous, 16 mg/kg Q7D×3, Day 15
[11] = cynomolgus monkey, plasma, iv, 20 mg/kg, cynomolgus monkeys, Mean (N=3)
[12] = cynomolgus monkey, plasma, iv, 20 mg/kg, monkeys
[13] = cynomolgus monkeys, individual animals, 20 mg/kg

Cn1c(COP(=O)(NCCBr)NCCBr)cnc1[N+](=O)[O-] [TH302]
affected organs at the highest dose level ([1]; 32 mg/kg single dose): bone marrow, kidney, thymus and intestine
lethality ([1]; single dose over 30 min, highest dose 32 mg/kg): lethality was observed
primary findings at the lowest toxicity level ([1]; single dose study): reduction in white blood cell counts
time to full reversal of changes at the lowest toxicity level ([1]; single dose study): ≤ 2 weeks
distribution of radioactivity [2]: associated with the gastro-intestinal (GI) tract, its contents, and the kidney
predicted Cl [3]: 109 L/h
predicted Vss [3]: 493 L
clearance ([4]; in vivo, 4 mg/kg Q7D×3, Day 15): 80.7 mL/min/kg
half-life ([4]; in vivo, 4 mg/kg Q7D×3, Day 15): 16.3 min
clearance ([4]; in vivo, 8 mg/kg Q7D×3, Day 15): 72.5 mL/min/kg
half-life ([4]; in vivo, 8 mg/kg Q7D×3, Day 15): 15.2 min
AUC [4, 7]: 4260 ng·h/mL
clearance [4, 7]: 63.7 mL/min/kg
half-life [4, 7]: 17 min
AUC [4, 8]: 853 ng·h/mL
Cmax [4, 8]: 1580 ng/mL
Vd [4, 8]: 2.1 L/kg
AUC [4, 9]: 1910 ng·h/mL
Cmax [4, 9]: 3650 ng/mL
Vd [4, 9]: 1.78 L/kg
Cmax [4, 10]: 7100 ng/mL
Vd [4, 10]: 1.93 L/kg
AUC at 15 day ([4]; plasma, intravenous, dogs, 8 mg/kg dose of TH302, read-out: drug exposure (AUC of TH302)): ~1910 ng·h/mL
metastatic tumor mass (H460 NSCLC cancer cells): visible reduction in metastatic tumor mass
AUC(0-t) [5, 11]: 3140 ng·h/mL
clearance [5, 11]: 128 mL/min/kg
Cmax ([5]; cynomolgus monkey, plasma, iv, 20 mg/kg, cynomolgus monkeys, Mean (N=3), read-out: Cmax): 20700 ng/mL
MRT ([5]; cynomolgus monkey, plasma, iv, 20 mg/kg, cynomolgus monkeys, Mean (N=3), read-out: MRT): 19.8 min
Vd [5, 11]: 2.92 L/kg
Cmax ([5]; cynomolgus monkey, plasma, iv, 20 mg/kg, cynomolgus monkeys, individual animals, read-out: Cmax): 15900 ng/mL
MRT ([5]; cynomolgus monkey, plasma, iv, 20 mg/kg, cynomolgus monkeys, individual animals, read-out: MRT): 28.6 min
clearance [5, 12]: 128 mL/min/kg
Vd [5, 12]: 2.92 L/kg
Tmax ([5]; cynomolgus monkey, plasma, iv, cynomolgus monkeys, individual animals): 1.98 min
half-life ([5]; cynomolgus monkey, plasma, iv, monkeys, read-out: Plasma t1/2): 24.9 min
Vβ ([5]; cynomolgus monkeys, Mean (N=3)): 6.17 L/kg
half-life ([5]; cynomolgus monkeys, Mean (N=3)): 24.9 min
AUClast [5, 13]: 1519 ng·h/mL and 3961 ng·h/mL and 3932 ng·h/mL
Cl [5, 13]: 217 mL/min/kg and 81.7 mL/min/kg and 84.5 mL/min/kg
Cmax [5, 13]: 28500 ng/mL and 17600 ng/mL
MRT [5, 13]: 14.7 min and 16.1 min
Vss [5, 13]: 6.18 L/kg and 1.20 L/kg and 1.36 L/kg
Vβ [5, 13]: 15.5 L/kg and 1.37 L/kg and 1.65 L/kg
half-life [5, 13]: 49.6 min and 11.6 min and 13.6 min
AUC ([6]; female, Females, 4 mg/kg): 2270 ng·h/mL
Cmax ([6]; female, Females, 4 mg/kg): 3830 ng/mL
Tmax ([6]; female, Females, 4 mg/kg): 31 min
clearance ([6]; female, Females, 4 mg/kg): 29.3 mL/min/kg
half-life ([6]; female, Females, 4 mg/kg): 16.1 min
Vd ([6]; female, Females, 4 mg/kg): 0.785 L/kg
AUC ([6]; female, Females, 8 mg/kg): 3400 ng·h/mL
Cmax ([6]; female, Females, 8 mg/kg): 6410 ng/mL
Tmax ([6]; female, Females, 8 mg/kg): 31.5 min
clearance ([6]; female, Females, 8 mg/kg): 39.7 mL/min/kg
half-life ([6]; female, Females, 8 mg/kg): 15.1 min
Vd ([6]; female, Females, 8 mg/kg): 0.974 L/kg
AUC ([6]; female, Females, 16 mg/kg): 7660 ng·h/mL
Cmax ([6]; female, Females, 16 mg/kg): 13700 ng/mL
Tmax ([6]; female, Females, 16 mg/kg): 31 min
clearance ([6]; female, Females, 16 mg/kg): 34.8 mL/min/kg
half-life ([6]; female, Females, 16 mg/kg): 16.7 min
Vd ([6]; female, Females, 16 mg/kg): 0.874 L/kg
AUC ([6]; female, Females, 32 mg/kg): 9530 ng·h/mL
Cmax ([6]; female, Females, 32 mg/kg): 18500 ng/mL
Tmax ([6]; female, Females, 32 mg/kg): 31 min
clearance ([6]; female, Females, 32 mg/kg): 56.5 mL/min/kg
half-life ([6]; female, Females, 32 mg/kg): 15.4 min
Vd ([6]; female, Females, 32 mg/kg): 1.37 L/kg
AUC ([6]; male, Males, 4 mg/kg): 2330 ng·h/mL
Cmax ([6]; male, Males, 4 mg/kg): 4160 ng/mL
Tmax ([6]; male, Males, 4 mg/kg): 37 min
clearance ([6]; male, Males, 4 mg/kg): 28.3 mL/min/kg
half-life ([6]; male, Males, 4 mg/kg): 16.1 min
Vd ([6]; male, Males, 4 mg/kg): 0.822 L/kg
AUC ([6]; male, Males, 8 mg/kg): 3640 ng·h/mL
Cmax ([6]; male, Males, 8 mg/kg): 6350 ng/mL
Tmax ([6]; male, Males, 8 mg/kg): 31.5 min
clearance ([6]; male, Males, 8 mg/kg): 37.2 mL/min/kg
half-life ([6]; male, Males, 8 mg/kg): 15.6 min
Vd ([6]; male, Males, 8 mg/kg): 0.982 L/kg
AUC ([6]; male, Males, 16 mg/kg): 6200 ng·h/mL
Cmax ([6]; male, Males, 16 mg/kg): 10800 ng/mL
Tmax ([6]; male, Males, 16 mg/kg): 31.5 min
clearance ([6]; male, Males, 16 mg/kg): 43 mL/min/kg
half-life ([6]; male, Males, 16 mg/kg): 15.5 min
Vd ([6]; male, Males, 16 mg/kg): 1.1 L/kg
AUC ([6]; male, Males, 32 mg/kg): 11000 ng·h/mL
Cmax ([6]; male, Males, 32 mg/kg): 23000 ng/mL
Tmax ([6]; male, Males, 32 mg/kg): 31.5 min
clearance ([6]; male, Males, 32 mg/kg): 48.5 mL/min/kg
half-life ([6]; male, Males, 32 mg/kg): 14.9 min
Vd ([6]; male, Males, 32 mg/kg): 1.12 L/kg
